Legend:
Test in all cases: radiometric filter-binding kinase assay, Kinase HotSpot
Details in all cases: compound 0.5 µM; ATP 10 µM
KDR (human) = KDR (human) (UniProt P35968)
DYRK4 (human) = DYRK4 (human) (UniProt Q9NR20)
STK11 (human) = STK11 (human) (UniProt Q15831)
MARK4 (human) = MARK4 (human) (UniProt Q96L34)
NEK7 (human) = NEK7 (human) (UniProt Q8TDX7)
JAK3 JH1 JH2 (human) = JAK3 JH1 JH2 (human) (UniProt P52333)
IRAK4 (human) = IRAK4 (human) (UniProt Q9NWZ3)
MAP3K8 (human) = MAP3K8 (human) (UniProt P41279)
HIPK2 (human) = HIPK2 (human) (UniProt Q9H2X6)
MAPK9 (human) = MAPK9 (human) (UniProt P45984)
TGFBR1 (human) = TGFBR1 (human) (UniProt P36897)
EPHB2 (human) = EPHB2 (human) (UniProt P29323)
ULK2 (human) = ULK2 (human) (UniProt Q8IYT8)
ROCK1 (human) = ROCK1 (human) (UniProt Q13464)
CLK2 (human) = CLK2 (human) (UniProt P49760)
PAK4 (human) = PAK4 (human) (UniProt O96013)
PNCK (human) = PNCK (human) (UniProt Q6P2M8)
FER (human) = FER (human) (UniProt P16591)
CSNK1G3 (human) = CSNK1G3 (human) (UniProt Q9Y6M4)
PAK6 (human) = PAK6 (human) (UniProt Q9NQU5)
DSTYK (human) = DSTYK (human) (UniProt Q6XUX3)
MST1R (human) = MST1R (human) (UniProt Q04912)
MST1R (human), sequence (Q04912 whole entry, looked up): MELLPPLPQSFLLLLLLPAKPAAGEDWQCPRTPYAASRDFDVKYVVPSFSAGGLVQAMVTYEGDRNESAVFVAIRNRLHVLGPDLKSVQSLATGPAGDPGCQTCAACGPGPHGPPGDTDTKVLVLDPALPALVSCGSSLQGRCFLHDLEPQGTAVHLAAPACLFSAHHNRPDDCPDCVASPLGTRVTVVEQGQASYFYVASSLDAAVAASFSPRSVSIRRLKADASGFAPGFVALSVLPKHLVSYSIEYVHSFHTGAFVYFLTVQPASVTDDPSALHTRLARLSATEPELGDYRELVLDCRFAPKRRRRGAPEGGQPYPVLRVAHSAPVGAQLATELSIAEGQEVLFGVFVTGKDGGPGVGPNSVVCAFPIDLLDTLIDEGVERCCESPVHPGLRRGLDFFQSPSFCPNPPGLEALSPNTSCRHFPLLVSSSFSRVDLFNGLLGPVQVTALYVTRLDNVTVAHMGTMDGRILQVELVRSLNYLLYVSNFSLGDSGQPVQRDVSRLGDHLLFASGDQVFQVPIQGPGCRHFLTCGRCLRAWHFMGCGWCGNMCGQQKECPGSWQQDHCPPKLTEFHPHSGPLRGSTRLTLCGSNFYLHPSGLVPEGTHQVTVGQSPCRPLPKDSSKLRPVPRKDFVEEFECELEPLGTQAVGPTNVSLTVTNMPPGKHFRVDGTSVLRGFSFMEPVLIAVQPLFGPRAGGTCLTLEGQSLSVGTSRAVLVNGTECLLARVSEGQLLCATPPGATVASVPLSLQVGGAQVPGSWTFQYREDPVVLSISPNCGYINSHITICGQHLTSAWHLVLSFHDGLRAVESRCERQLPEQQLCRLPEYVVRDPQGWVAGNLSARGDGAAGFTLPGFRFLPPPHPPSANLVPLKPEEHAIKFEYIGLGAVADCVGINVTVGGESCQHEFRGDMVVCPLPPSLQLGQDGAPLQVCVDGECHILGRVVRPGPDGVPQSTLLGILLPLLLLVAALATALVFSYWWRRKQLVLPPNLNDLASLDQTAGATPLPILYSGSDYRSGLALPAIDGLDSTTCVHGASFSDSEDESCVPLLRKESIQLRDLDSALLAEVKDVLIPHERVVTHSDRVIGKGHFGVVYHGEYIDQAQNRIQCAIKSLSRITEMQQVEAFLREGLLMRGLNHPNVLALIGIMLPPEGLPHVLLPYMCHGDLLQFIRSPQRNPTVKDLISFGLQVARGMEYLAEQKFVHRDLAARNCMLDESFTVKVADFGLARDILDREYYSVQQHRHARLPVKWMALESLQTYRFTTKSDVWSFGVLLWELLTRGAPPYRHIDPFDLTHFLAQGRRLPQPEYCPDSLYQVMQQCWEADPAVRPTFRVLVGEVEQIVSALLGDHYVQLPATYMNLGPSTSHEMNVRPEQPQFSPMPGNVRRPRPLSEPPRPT

PHKG2 (human) = PHKG2 (human) (UniProt P15735)
PRKX (human) = PRKX (human) (UniProt P51817)
PRKX (human), sequence (P51817 whole entry, looked up): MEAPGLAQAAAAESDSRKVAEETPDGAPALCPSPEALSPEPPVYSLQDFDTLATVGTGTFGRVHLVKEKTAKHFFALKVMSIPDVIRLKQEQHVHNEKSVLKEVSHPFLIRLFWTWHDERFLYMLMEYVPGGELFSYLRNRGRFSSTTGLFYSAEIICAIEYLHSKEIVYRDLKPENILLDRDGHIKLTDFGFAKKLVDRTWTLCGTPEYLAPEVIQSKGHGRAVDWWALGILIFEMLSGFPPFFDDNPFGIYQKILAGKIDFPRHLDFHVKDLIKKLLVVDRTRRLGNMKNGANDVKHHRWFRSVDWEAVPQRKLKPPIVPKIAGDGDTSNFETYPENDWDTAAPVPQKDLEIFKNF

MAPK10 (human) = MAPK10 (human) (UniProt P53779)
RAF1 (human) = RAF1 (human) (UniProt P04049)
CDK5 CDK5R1 p25 (human) = CDK5 CDK5R1 p25 (human) (UniProt Q00535+Q15078)
MAP2K2 (human) = MAP2K2 (human) (UniProt P36507)
TAOK2 (human) = TAOK2 (human) (UniProt Q9UL54)
NUAK1 (human) = NUAK1 (human) (UniProt O60285)
CAMK1 (human) = CAMK1 (human) (UniProt Q14012)
CAMK1 (human), sequence (Q14012 whole entry, looked up): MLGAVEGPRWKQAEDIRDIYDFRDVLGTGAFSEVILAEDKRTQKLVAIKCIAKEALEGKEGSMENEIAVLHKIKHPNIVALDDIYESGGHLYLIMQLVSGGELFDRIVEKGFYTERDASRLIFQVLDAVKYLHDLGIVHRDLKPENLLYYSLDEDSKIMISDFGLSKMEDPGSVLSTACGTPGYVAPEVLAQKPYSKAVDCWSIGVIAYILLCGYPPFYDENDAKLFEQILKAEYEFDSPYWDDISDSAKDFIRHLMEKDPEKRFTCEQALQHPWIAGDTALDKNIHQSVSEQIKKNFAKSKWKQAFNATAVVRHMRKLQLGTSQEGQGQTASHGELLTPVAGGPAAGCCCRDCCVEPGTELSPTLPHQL

ERBB4 (human) = ERBB4 (human) (UniProt Q15303)
MAP3K14 (human) = MAP3K14 (human) (UniProt Q99558)
MST4 (human) = MST4 (human) (UniProt Q9P289)
ALK (human) = ALK (human) (UniProt Q9UM73)
ALK (human), sequence (Q9UM73 whole entry, looked up): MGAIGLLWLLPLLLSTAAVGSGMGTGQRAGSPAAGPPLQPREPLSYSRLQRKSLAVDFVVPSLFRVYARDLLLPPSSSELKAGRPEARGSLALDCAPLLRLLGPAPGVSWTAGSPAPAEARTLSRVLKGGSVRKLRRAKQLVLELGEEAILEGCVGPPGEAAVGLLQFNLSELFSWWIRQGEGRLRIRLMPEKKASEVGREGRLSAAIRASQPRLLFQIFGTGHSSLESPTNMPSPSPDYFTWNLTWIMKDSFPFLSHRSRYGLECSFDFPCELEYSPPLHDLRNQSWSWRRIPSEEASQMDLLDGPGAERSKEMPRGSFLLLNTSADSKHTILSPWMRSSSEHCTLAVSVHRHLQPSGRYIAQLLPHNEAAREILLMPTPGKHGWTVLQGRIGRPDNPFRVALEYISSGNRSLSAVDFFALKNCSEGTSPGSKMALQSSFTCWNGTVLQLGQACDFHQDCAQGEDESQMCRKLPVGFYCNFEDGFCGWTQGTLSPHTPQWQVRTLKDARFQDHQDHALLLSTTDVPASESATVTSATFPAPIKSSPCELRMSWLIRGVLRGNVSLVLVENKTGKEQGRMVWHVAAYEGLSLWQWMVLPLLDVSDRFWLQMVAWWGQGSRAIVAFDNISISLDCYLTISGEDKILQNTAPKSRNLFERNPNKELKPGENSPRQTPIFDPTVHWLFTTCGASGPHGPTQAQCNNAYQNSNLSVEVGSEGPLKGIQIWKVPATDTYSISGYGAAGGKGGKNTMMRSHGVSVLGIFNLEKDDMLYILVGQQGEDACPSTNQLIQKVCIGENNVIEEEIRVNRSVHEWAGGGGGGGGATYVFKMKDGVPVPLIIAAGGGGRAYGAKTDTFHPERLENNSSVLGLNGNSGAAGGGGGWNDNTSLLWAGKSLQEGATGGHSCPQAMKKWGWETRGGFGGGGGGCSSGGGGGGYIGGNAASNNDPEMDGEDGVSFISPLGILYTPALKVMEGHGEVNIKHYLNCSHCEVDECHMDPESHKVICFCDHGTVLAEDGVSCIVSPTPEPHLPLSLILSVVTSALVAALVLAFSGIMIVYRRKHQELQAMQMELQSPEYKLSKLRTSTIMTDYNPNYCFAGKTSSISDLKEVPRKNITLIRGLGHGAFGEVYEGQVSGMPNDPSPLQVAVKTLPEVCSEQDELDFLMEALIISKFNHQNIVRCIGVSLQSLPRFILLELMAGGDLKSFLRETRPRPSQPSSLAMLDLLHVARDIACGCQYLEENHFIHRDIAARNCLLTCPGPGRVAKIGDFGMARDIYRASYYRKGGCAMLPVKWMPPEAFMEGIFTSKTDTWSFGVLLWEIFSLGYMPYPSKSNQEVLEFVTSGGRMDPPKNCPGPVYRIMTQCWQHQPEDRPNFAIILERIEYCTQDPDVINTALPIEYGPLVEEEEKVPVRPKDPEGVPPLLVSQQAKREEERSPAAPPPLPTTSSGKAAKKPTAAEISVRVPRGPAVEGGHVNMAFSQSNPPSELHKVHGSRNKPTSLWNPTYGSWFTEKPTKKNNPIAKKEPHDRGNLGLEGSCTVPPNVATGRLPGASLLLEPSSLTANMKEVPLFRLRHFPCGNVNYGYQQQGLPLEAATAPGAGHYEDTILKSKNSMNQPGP

RPS6KB2 (human) = RPS6KB2 (human) (UniProt Q9UBS0)
LTK (human) = LTK (human) (UniProt P29376)
TEK (human) = TEK (human) (UniProt Q02763)
TEK (human), sequence (Q02763 whole entry, looked up): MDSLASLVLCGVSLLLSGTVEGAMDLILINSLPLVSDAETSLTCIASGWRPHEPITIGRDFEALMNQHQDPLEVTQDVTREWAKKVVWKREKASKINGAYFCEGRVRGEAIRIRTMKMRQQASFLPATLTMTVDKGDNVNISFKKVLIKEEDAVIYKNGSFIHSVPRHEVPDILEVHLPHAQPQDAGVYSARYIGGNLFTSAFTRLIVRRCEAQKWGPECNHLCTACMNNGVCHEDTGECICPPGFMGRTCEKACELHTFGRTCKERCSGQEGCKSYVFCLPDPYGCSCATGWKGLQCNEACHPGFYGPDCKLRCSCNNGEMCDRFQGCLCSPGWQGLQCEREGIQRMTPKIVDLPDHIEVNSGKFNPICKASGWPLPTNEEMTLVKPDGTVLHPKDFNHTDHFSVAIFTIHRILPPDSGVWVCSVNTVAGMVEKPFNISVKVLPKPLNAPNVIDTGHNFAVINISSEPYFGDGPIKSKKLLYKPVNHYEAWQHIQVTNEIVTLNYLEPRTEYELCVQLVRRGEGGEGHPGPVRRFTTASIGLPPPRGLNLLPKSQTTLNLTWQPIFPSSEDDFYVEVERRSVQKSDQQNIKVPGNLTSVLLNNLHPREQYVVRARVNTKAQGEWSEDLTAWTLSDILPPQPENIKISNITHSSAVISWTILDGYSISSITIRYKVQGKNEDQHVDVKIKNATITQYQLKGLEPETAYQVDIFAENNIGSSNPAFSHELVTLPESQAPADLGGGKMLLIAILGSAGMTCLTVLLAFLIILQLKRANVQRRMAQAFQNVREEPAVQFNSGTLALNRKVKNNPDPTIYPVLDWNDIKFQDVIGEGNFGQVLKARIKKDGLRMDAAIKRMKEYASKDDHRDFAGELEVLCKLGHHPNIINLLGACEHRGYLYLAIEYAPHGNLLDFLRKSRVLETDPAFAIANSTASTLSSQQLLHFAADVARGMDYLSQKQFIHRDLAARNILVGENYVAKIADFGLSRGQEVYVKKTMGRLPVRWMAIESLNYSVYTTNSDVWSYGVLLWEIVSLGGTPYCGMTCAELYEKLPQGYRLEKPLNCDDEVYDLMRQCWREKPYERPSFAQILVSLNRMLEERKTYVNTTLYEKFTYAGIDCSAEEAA

CSF1R (human) = CSF1R (human) (UniProt P07333)
ZAP70 (human) = ZAP70 (human) (UniProt P43403)
CLK3 (human) = CLK3 (human) (UniProt P49761)
CLK4 (human) = CLK4 (human) (UniProt Q9HAZ1)

Compound `CCN(CC)CCCCN1c2ccccc2Oc2ccc(Cl)cc21` has a residual activity (KDR (human)) of 93.7%, a residual activity (DYRK4 (human)) of 100% and a residual activity (STK11 (human)) of 94.4%. It also gave a residual activity (MARK4 (human)) of 97.2%, a residual activity (NEK7 (human)) of 89.7% and a residual activity (JAK3 JH1 JH2 (human)) of 106%. It also gave a residual activity (IRAK4 (human)) of 194%, a residual activity (MAP3K8 (human)) of 94.7% and a residual activity (HIPK2 (human)) of 118%. The residual activity (MAPK9 (human)) was 105%, the residual activity (TGFBR1 (human)) was 97.2% and the residual activity (EPHB2 (human)) was 107%. The residual activity (ULK2 (human)) was 103%, the residual activity (ROCK1 (human)) was 92.6% and the residual activity (CLK2 (human)) was 105%. For the same compound, the residual activity (PAK4 (human)) was 104%, the residual activity (PNCK (human)) was 107% and the residual activity (FER (human)) was 102%. For the same compound, the residual activity (CSNK1G3 (human)) was 78.3%, the residual activity (PAK6 (human)) was 102% and the residual activity (DSTYK (human)) was 106%. The residual activity (MST1R (human)) was 112%, the residual activity (PHKG2 (human)) was 110% and the residual activity (PRKX (human)) was 103%. For the same compound, the residual activity (MAPK10 (human)) was 104%, the residual activity (RAF1 (human)) was 105% and the residual activity (CDK5 CDK5R1 p25 (human)) was 91%. It also gave a residual activity (MAP2K2 (human)) of 88.4%, a residual activity (TAOK2 (human)) of 95.3% and a residual activity (NUAK1 (human)) of 90.7%. It also gave a residual activity (CAMK1 (human)) of 101%, a residual activity (ERBB4 (human)) of 102% and a residual activity (MAP3K14 (human)) of 95.6%. It also gave a residual activity (MST4 (human)) of 98%, a residual activity (ALK (human)) of 106% and a residual activity (RPS6KB2 (human)) of 107%. The residual activity (LTK (human)) was 98.4%, the residual activity (TEK (human)) was 103% and the residual activity (CSF1R (human)) was 97.8%. It also gave a residual activity (ZAP70 (human)) of 91.1%, a residual activity (CLK3 (human)) of 104% and a residual activity (CLK4 (human)) of 97%.

With `COc1ccc(OC)c2c(=S)c3ccccc3[nH]c12` the residual activity (KDR (human)) was 108%, the residual activity (DYRK4 (human)) was 107% and the residual activity (STK11 (human)) was 84.4%. It also gave a residual activity (MARK4 (human)) of 95.7%, a residual activity (NEK7 (human)) of 97.2% and a residual activity (JAK3 JH1 JH2 (human)) of 96.7%. It also gave a residual activity (IRAK4 (human)) of 109%, a residual activity (MAP3K8 (human)) of 111% and a residual activity (HIPK2 (human)) of 98.3%. It also gave a residual activity (MAPK9 (human)) of 102%, a residual activity (TGFBR1 (human)) of 99.1% and a residual activity (EPHB2 (human)) of 94.9%. It also gave a residual activity (ULK2 (human)) of 94.7%, a residual activity (ROCK1 (human)) of 97.8% and a residual activity (CLK2 (human)) of 81.2%. For the same compound, the residual activity (PAK4 (human)) was 102%, the residual activity (PNCK (human)) was 97.3% and the residual activity (FER (human)) was 84%. For the same compound, the residual activity (CSNK1G3 (human)) was 86.2%, the residual activity (PAK6 (human)) was 112% and the residual activity (DSTYK (human)) was 91.3%. It also gave a residual activity (MST1R (human)) of 87.9%, a residual activity (PHKG2 (human)) of 94.6% and a residual activity (PRKX (human)) of 93.5%. The residual activity (MAPK10 (human)) was 108%, the residual activity (RAF1 (human)) was 88.2% and the residual activity (CDK5 CDK5R1 p25 (human)) was 85.4%. It also gave a residual activity (MAP2K2 (human)) of 100%, a residual activity (TAOK2 (human)) of 100% and a residual activity (NUAK1 (human)) of 99.3%. The residual activity (CAMK1 (human)) was 75.2%, the residual activity (ERBB4 (human)) was 104% and the residual activity (MAP3K14 (human)) was 96%. The residual activity (MST4 (human)) was 90.8%, the residual activity (ALK (human)) was 105% and the residual activity (RPS6KB2 (human)) was 105%. It also gave a residual activity (LTK (human)) of 84.5%, a residual activity (TEK (human)) of 100% and a residual activity (CSF1R (human)) of 93.4%. It also gave a residual activity (ZAP70 (human)) of 100%, a residual activity (CLK3 (human)) of 96.3% and a residual activity (CLK4 (human)) of 104%.

With `O=C1Cc2c([nH]c3ccc(Br)cc23)-c2ccccc2N1` the residual activity (KDR (human)) was 98.1%, the residual activity (DYRK4 (human)) was 97.2% and the residual activity (STK11 (human)) was 95.7%. It also gave a residual activity (MARK4 (human)) of 60.2%, a residual activity (NEK7 (human)) of 94.3% and a residual activity (JAK3 JH1 JH2 (human)) of 103%. The residual activity (IRAK4 (human)) was 88.3%, the residual activity (MAP3K8 (human)) was 98.6% and the residual activity (HIPK2 (human)) was 107%. The residual activity (MAPK9 (human)) was 93.8%, the residual activity (TGFBR1 (human)) was 97.7% and the residual activity (EPHB2 (human)) was 95.5%. The residual activity (ULK2 (human)) was 90.1%, the residual activity (ROCK1 (human)) was 96.1% and the residual activity (CLK2 (human)) was 95.7%. The residual activity (PAK4 (human)) was 92.2%, the residual activity (PNCK (human)) was 99.6% and the residual activity (FER (human)) was 89.7%. For the same compound, the residual activity (CSNK1G3 (human)) was 103%, the residual activity (PAK6 (human)) was 97.8% and the residual activity (DSTYK (human)) was 98.6%. The residual activity (MST1R (human)) was 93.6%, the residual activity (PHKG2 (human)) was 98.9% and the residual activity (PRKX (human)) was 100%. It also gave a residual activity (MAPK10 (human)) of 89.6%, a residual activity (RAF1 (human)) of 91.5% and a residual activity (CDK5 CDK5R1 p25 (human)) of 64.8%. The residual activity (MAP2K2 (human)) was 116%, the residual activity (TAOK2 (human)) was 94% and the residual activity (NUAK1 (human)) was 14.6%. The residual activity (CAMK1 (human)) was 106%, the residual activity (ERBB4 (human)) was 101% and the residual activity (MAP3K14 (human)) was 106%. The residual activity (MST4 (human)) was 108%, the residual activity (ALK (human)) was 90.8% and the residual activity (RPS6KB2 (human)) was 99.4%. It also gave a residual activity (LTK (human)) of 91.8%, a residual activity (TEK (human)) of 106% and a residual activity (CSF1R (human)) of 92.6%. For the same compound, the residual activity (ZAP70 (human)) was 93.6%, the residual activity (CLK3 (human)) was 99.3% and the residual activity (CLK4 (human)) was 91.1%.

From the kinase profiling compilation of Christmann-Franck et al. (2016)
